{
  "source": "ChEMBL document CHEMBL3886344",
  "about": "“Compounds of modulating TRPV3 function” (2015)",
  "experiment": "Inhibition Assay: To determine whether compounds were selective for TRPV3 inhibition over inhibition of other ion channel types, the human ERG (hERG), NaV1.2, and TRPV1 (hTRPV1) channels and the rat TRPV6 (rTRPV6) channel were also stably transfected and expressed or induced to express in mammalian cell lines. The methods for measuring currents from these channels are well-established and have been described in numerous publications (See, Weerapura et al., 2002, J Physiology 540: 15-27; Rush et al., 2005, J Physiology 564: 808-815; Caterina et al., 1997, Nature 389: 816-824; Hoenderhop et al., 2001, J Physiology 537: 747-761; Clapham et al., 2003, Pharmacol Rev 55: 591-596).",
  "data": [
    {"smiles": "Cc1cccc2c1N(C(=O)CSc1ccc(Cl)cn1)CCC2", "values": [
      {"measurement": "IC50", "value": "> 30", "unit": "µM"}
    ]}
  ]
}
